Values after ≈ are worked out from the molar mass of the structure shown.
Tests used:
Type in all cases: functional
Staphylococcus aureus [1] = assay: Antibacterial activity against methicillin-susceptible Staphylococcus aureus 209P
Staphylococcus aureus [2] = assay: Antibacterial activity against methicillin-resistant Staphylococcus aureus MF535
Enterococcus faecium [3] = assay: Antibacterial activity against Enterococcus faecium ATCC 19434
Enterococcus faecium [4] = assay: Antibacterial activity against vancomycin-resistant Enterococcus faecium VRA

| SMILES | MIC (Staphylococcus aureus [1]) [µg/mL] | MIC (Staphylococcus aureus [2]) [µg/mL] | MIC (Enterococcus faecium [3]) [µg/mL] | MIC (Enterococcus faecium [4]) [µg/mL] |
| --- | --- | --- | --- | --- |
| Cn1c(=O)c(C(c2ccc(OC(F)(F)F)cc2)c2[nH]c3ccccc3c2CCOC(=O)Cc2ccccc2)c(O)c2ccccc21 (configuration not stated) | 1 (≈ 1.6 µM) | 1 (≈ 1.6 µM) | 32 (≈ 51.1 µM) | 2 (≈ 3.19 µM) |
| COc1ccc(C(c2[nH]c3ccccc3c2CCOC(=O)c2ccccc2)c2c(O)c3ccccc3oc2=O)cc1 (configuration not stated) | 8 (≈ 14.7 µM) | 8 (≈ 14.7 µM) | 16 (≈ 29.3 µM) | 16 (≈ 29.3 µM) |
| CN[C@H](CC(C)C)C(=O)N[C@H]1C(=O)N[C@@H](CC(N)=O)C(=O)N[C@H]2C(=O)N[C@H]3C(=O)N[C@H](C(=O)N[C@H](C(=O)O)c4cc(O)cc(O)c4-c4cc3ccc4O)[C@H](O)c3ccc(c(Cl)c3)Oc3cc2cc(c3O[C@@H]2O[C@H](CO)[C@@H](O)[C@H](O)[C@H]2O[C@H]2C[C@](C)(N)[C@H](O)[C@H](C)O2)Oc2ccc(cc2Cl)[C@H]1O [VANCOMYCIN] | – | – | – | > 128 |
| Cn1c(=O)c(C(c2ccc(C(F)(F)F)cc2)c2[nH]c3ccccc3c2CCOC(=O)c2ccccc2)c(O)c2ccccc21 (configuration not stated) | 0.5 (≈ 0.838 µM) | 1 (≈ 1.68 µM) | 8 (≈ 13.4 µM) | 8 (≈ 13.4 µM) |
| O=C(OCCc1c(C(c2ccc(OC(F)(F)F)cc2)c2c(O)c3ccccc3oc2=O)[nH]c2ccccc12)c1ccccc1 (configuration not stated) | 2 (≈ 3.34 µM) | 2 (≈ 3.34 µM) | 0.5 (≈ 0.834 µM) | 0.5 (≈ 0.834 µM) |
| O=C(OCCc1c(C(c2ccc(Br)cc2)c2c(O)c3ccccc3oc2=O)[nH]c2ccccc12)c1ccccc1 (configuration not stated) | 2 (≈ 3.36 µM) | 2 (≈ 3.36 µM) | 2 (≈ 3.36 µM) | 2 (≈ 3.36 µM) |
| Cn1c(=O)c(C(c2cccc(Br)c2)c2[nH]c3ccccc3c2CCOC(=O)Cc2ccccc2)c(O)c2ccccc21 (configuration not stated) | 64 (≈ 103 µM) | > 128 | > 128 | > 128 |
| CN(C(=O)NCCc1c(C(c2ccc(C(F)(F)F)cc2)c2c(O)c3ccccc3n(C)c2=O)[nH]c2ccccc12)c1ccccc1 (configuration not stated) | 1 (≈ 1.6 µM) | 1 (≈ 1.6 µM) | 2 (≈ 3.2 µM) | 1 (≈ 1.6 µM) |
| Cn1c(=O)c(C(c2cccc(Br)c2)c2[nH]c3ccccc3c2CCOC(=O)c2ccccc2)c(O)c2ccccc21 (configuration not stated) | 1 (≈ 1.65 µM) | 2 (≈ 3.29 µM) | > 128 | > 128 |
| Cn1c(=O)c(C(c2ccc(OC(F)(F)F)cc2)c2[nH]c3ccccc3c2CCOC(=O)C2CCCCC2)c(O)c2ccccc21 (configuration not stated) | 1 (≈ 1.62 µM) | 1 (≈ 1.62 µM) | 2 (≈ 3.23 µM) | 2 (≈ 3.23 µM) |
| COc1ccccc1C(=O)OCCc1c(C(c2cccc(Br)c2)c2c(O)c3ccccc3oc2=O)[nH]c2ccccc12 (configuration not stated) | 4 (≈ 6.41 µM) | 8 (≈ 12.8 µM) | 8 (≈ 12.8 µM) | 8 (≈ 12.8 µM) |
| O=C(OCCc1c(C(c2cccc(F)c2)c2c(O)c3ccccc3oc2=O)[nH]c2ccccc12)c1ccccc1 (configuration not stated) | 4 (≈ 7.5 µM) | 8 (≈ 15 µM) | 8 (≈ 15 µM) | 8 (≈ 15 µM) |
| COc1ccccc1C(=O)NCCc1c(C(c2cccc(Br)c2)c2c(O)c3ccccc3oc2=O)[nH]c2ccccc12 (configuration not stated) | 8 (≈ 12.8 µM) | 16 (≈ 25.7 µM) | 32 (≈ 51.3 µM) | 32 (≈ 51.3 µM) |
| O=C(OCCc1c(C(c2cccc(Br)c2)c2c(O)c3ccccc3oc2=O)[nH]c2ccccc12)c1ccccc1 (configuration not stated) | 4 (≈ 6.73 µM) | 4 (≈ 6.73 µM) | 4 (≈ 6.73 µM) | 4 (≈ 6.73 µM) |
| CSc1ccc(C(c2[nH]c3ccccc3c2CCOC(=O)c2ccccc2)c2c(O)c3ccccc3oc2=O)cc1 (configuration not stated) | 4 (≈ 7.12 µM) | 8 (≈ 14.2 µM) | 4 (≈ 7.12 µM) | 4 (≈ 7.12 µM) |
| O=C(OCCc1c(C(c2ccc(OC(F)(F)F)cc2)c2c(O)c3cc(Cl)ccc3oc2=O)[nH]c2ccccc12)c1ccccc1 (configuration not stated) | 2 (≈ 3.15 µM) | 2 (≈ 3.15 µM) | 1 (≈ 1.58 µM) | 1 (≈ 1.58 µM) |
| Cn1c(=O)c(C(c2ccc(C(F)(F)F)cc2)c2[nH]c3ccccc3c2CCOC(=O)C2CCCCC2)c(O)c2ccccc21 (configuration not stated) | 1 (≈ 1.66 µM) | 1 (≈ 1.66 µM) | 2 (≈ 3.32 µM) | 1 (≈ 1.66 µM) |
| O=C(OCCc1c(C(c2ccc(C(F)(F)F)cc2)c2c(O)c3ccccc3oc2=O)[nH]c2ccccc12)c1ccccc1 (configuration not stated) | 2 (≈ 3.43 µM) | 2 (≈ 3.43 µM) | 2 (≈ 3.43 µM) | 2 (≈ 3.43 µM) |

| SMILES | MIC (Staphylococcus aureus [1]) [µg/mL] | MIC (Staphylococcus aureus [2]) [µg/mL] | MIC (Enterococcus faecium [3]) [µg/mL] | MIC (Enterococcus faecium [4]) [µg/mL] |
| --- | --- | --- | --- | --- |
| O=C(OCCc1c(C(c2ccccc2)c2c(O)c3ccccc3oc2=O)[nH]c2ccccc12)c1ccccc1 (configuration not stated) | 8 (≈ 15.5 µM) | 8 (≈ 15.5 µM) | 16 (≈ 31 µM) | 16 (≈ 31 µM) |
| COc1ccccc1C(=O)OCCc1c(C(c2cncc(Br)c2)c2c(O)c3ccccc3oc2=O)[nH]c2ccccc12 (configuration not stated) | 64 (≈ 102 µM) | 128 (≈ 205 µM) | 128 (≈ 205 µM) | 128 (≈ 205 µM) |
| COc1ccccc1C(=O)OCCc1c(C(c2cccc(Br)c2)c2c(O)cc(C)oc2=O)[nH]c2ccccc12 (configuration not stated) | 32 (≈ 54.4 µM) | 64 (≈ 109 µM) | 64 (≈ 109 µM) | 64 (≈ 109 µM) |
| O=C(OCCc1c(C(c2cccc(C(F)(F)F)c2)c2c(O)c3ccccc3oc2=O)[nH]c2ccccc12)c1ccccc1 (configuration not stated) | 4 (≈ 6.85 µM) | 4 (≈ 6.85 µM) | 2 (≈ 3.43 µM) | 1 (≈ 1.71 µM) |
| Cn1c(=O)c(C(c2ccc(OC(F)(F)F)cc2)c2[nH]c3ccccc3c2CCOC(=O)c2ccccc2)c(O)c2ccccc21 (configuration not stated) | 0.5 (≈ 0.816 µM) | 1 (≈ 1.63 µM) | > 128 | > 128 |
| CC(=O)NC[C@H]1CN(c2ccc(N3CCOCC3)c(F)c2)C(=O)O1 [LINEZOLID] | 1 (≈ 2.96 µM) | 1 (≈ 2.96 µM) | 2 (≈ 5.93 µM) | 2 (≈ 5.93 µM) |
| COc1ccccc1C(=O)OCCc1c(C(c2cccc(Br)c2)c2c(O)c3ccccc3n(C)c2=O)[nH]c2ccccc12 (configuration not stated) | > 128 | > 128 | > 128 | > 128 |
| CC(=O)OCCc1c(C(c2cccc(Br)c2)c2c(O)c3ccccc3n(C)c2=O)[nH]c2ccccc12 (configuration not stated) | 16 (≈ 29.3 µM) | 16 (≈ 29.3 µM) | 64 (≈ 117 µM) | 32 (≈ 58.7 µM) |
| Cc1ccc(C(c2[nH]c3ccccc3c2CCOC(=O)c2ccccc2)c2c(O)c3ccccc3oc2=O)cc1 (configuration not stated) | 4 (≈ 7.55 µM) | 4 (≈ 7.55 µM) | 8 (≈ 15.1 µM) | 8 (≈ 15.1 µM) |
| CC(=O)NCCc1c(C(c2cccc(Br)c2)c2c(O)c3ccccc3oc2=O)[nH]c2ccccc12 (configuration not stated) | > 128 | > 128 | > 128 | > 128 |
| Cn1c(=O)c(C(c2ccc(C(F)(F)F)cc2)c2[nH]c3ccccc3c2CCNS(=O)(=O)c2ccccc2)c(O)c2ccccc21 (configuration not stated) | 1 (≈ 1.58 µM) | 1 (≈ 1.58 µM) | 4 (≈ 6.33 µM) | 2 (≈ 3.17 µM) |
| Cn1c(=O)c(C(c2ccc(OC(F)(F)F)cc2)c2[nH]c3ccccc3c2CCNC(=O)c2ccccc2)c(O)c2ccccc21 (configuration not stated) | 8 (≈ 13.1 µM) | 128 (≈ 209 µM) | > 128 | > 128 |
| CC(=O)OCCc1c(C(c2cccc(Br)c2)c2c(O)c3ccccc3oc2=O)[nH]c2ccccc12 (configuration not stated) | 32 (≈ 60.1 µM) | 32 (≈ 60.1 µM) | 64 (≈ 120 µM) | 32 (≈ 60.1 µM) |
| Cn1c(=O)c(C(c2ccc(C(F)(F)F)cc2)c2[nH]c3ccccc3c2CCOC(=O)Cc2ccccc2)c(O)c2ccccc21 (configuration not stated) | 1 (≈ 1.64 µM) | 1 (≈ 1.64 µM) | > 128 | > 128 |
| CC(=O)NCCc1c(C(c2cccc(Br)c2)c2c(O)c3ccccc3n(C)c2=O)[nH]c2ccccc12 (configuration not stated) | 32 (≈ 58.8 µM) | 32 (≈ 58.8 µM) | > 128 | > 128 |
| Cc1cccc(C(c2[nH]c3ccccc3c2CCOC(=O)c2ccccc2)c2c(O)c3ccccc3oc2=O)c1 (configuration not stated) | 8 (≈ 15.1 µM) | 8 (≈ 15.1 µM) | 8 (≈ 15.1 µM) | 4 (≈ 7.55 µM) |
| Cn1c(=O)c(C(c2ccc(C(F)(F)F)cc2)c2[nH]c3ccccc3c2CCNC(=O)c2ccccc2)c(O)c2ccccc21 (configuration not stated) | 8 (≈ 13.4 µM) | 16 (≈ 26.9 µM) | 16 (≈ 26.9 µM) | 16 (≈ 26.9 µM) |

Source: ChEMBL document CHEMBL1146387, “A new class of anti-MRSA and anti-VRE agents: preparation and antibacterial activities of indole-containing compounds” (2007)
